From patent US20240245617A1, “LIPID-BASED TOPICAL INJECTION FORMULATIONS” (Beijing Jitai Pharmaceutical Technology Co., Ltd., priority 2022, published 2024) come the findings set out here.

Some results are limits rather than exact numbers.

This experiment has as its system C57BL/6 mice. Nature of the experiment: In vivo bioluminescence after intravenous administration of lipid nanoparticles encapsulating luciferase mRNA. Particulars: 0.5 mg/kg mRNA, liver. On the procedure:
The delivery effect and safety of nanoparticles encapsulating luciferase mRNA (Trilink, L-7202) in mice were evaluated. The test mice were SPF-grade C57BL/6 mice, female, 6-8 weeks old, weighing 18-22 g, and were purchased from SPF (Beijing) Biotechnology Co., Ltd. All animals were acclimatized for more than 7 days prior to the experiment, and had free access to food and water during the experiment. The conditions include alternating light and dark for 12/12 h, the indoor temperature of 20-26° C. and the humidity of 40-70%. The mice were randomly grouped. The lipid nanoparticles encapsulating luciferase mRNA prepared above were injected into mice by intravenous administration at a single dose of 0.5 mg/kg mRNA, and the mice were subjected to in vivo bioluminescence assay using a Small Animal In Vivo Imaging System (IVIS LUMINA III, purchased from PerkinElmer) at 6 h after administration. The assay was performed as follows: D-luciferin solution was prepared in saline at a concentration of 15 mg/mL, and each mouse was given the substrate by intraperitoneal injection. At ten minutes after administration of the substrate, the mice were anesthetized in an anesthesia chamber with isoflurane at a concentration of 2.5%. […] Data acquisition and analysis were performed on the liver.
The in vivo delivery efficiency of lipid nanoparticle carriers was expressed as the mean values of fluorescence intensity and total photon count in different animals within the same subject group, as shown in Table 4. Higher values of fluorescence intensity and total photon count indicate higher in vivo delivery efficiency of this mRNA fragment by lipid nanoparticles. The lipid nanoparticles containing the cationic lipids of the present disclosure have good in vivo delivery efficiency and mainly target the liver.

As for `CCCCCCCCOC(=O)C(C)(C)CCCCCC(CCCCCC(C)(C)C(=O)OCCCCCCCC)OC(=O)CCN(C)C` [Compound 2], the “Total photon count in vivo at 6 hours after administration (Total Flux)” value (from here on “Total photon count in vivo at 6 hours”) stood at 4.23E+08.

As for `CCCCCCCCCOC(=O)C(C)(C)CCCCCC(CCCCCC(C)(C)C(=O)OCCCCCCCCC)OC(=O)CCN(C)C` [Compound 3], the “Total photon count in vivo at 6 hours” value was 1.75E+09.

Take `CC(C)CCCC(C)CCOC(=O)C(C)(C)CCCCCC(CCCCCC(C)(C)C(=O)OCCC(C)CCCC(C)C)OC(=O)CCN(C)C` (centres unmarked) [Compound 6]: the “Total photon count in vivo at 6 hours” value worked out at 2.25E+09.

Take `CC/C=C\CCCCCOC(=O)C(C)(C)CCCCCC(CCCCCC(C)(C)C(=O)OCCCCC/C=C\CC)OC(=O)CCN(C)C` [Compound 7]: the “Total photon count in vivo at 6 hours” value is listed as 1.16E+08.

For the compound `CCCCCCCCCCNC(=O)C(C)(C)CCCCCC(CCCCCC(C)(C)C(=O)NCCCCCCCCCC)OC(=O)CCN(C)C` [Compound 8], the “Total photon count in vivo at 6 hours” value was found to be 3.26E+07.

In the case of `CCCCCCCCCNC(=O)C(C)(C)CCCCCC(CCCCCC(C)(C)C(=O)NCCCCCCCCC)OC(=O)CCN(C)C` [Compound 9], the “Total photon count in vivo at 6 hours” value is listed as 6.05E+06.

`CCCCCCCCCCCCNC(=O)C(C)(C)CCCCCC(CCCCCC(C)(C)C(=O)NCCCCCCCCCCCC)OC(=O)CCN(C)C` [Compound 10]: the “Total photon count in vivo at 6 hours” value was 1.26E+09.

As for `CCCCCCCCC(CCCCCCCC)NC(=O)C(C)(C)CCCCCC(CCCCCC(C)(C)C(=O)NC(CCCCCCCC)CCCCCCCC)OC(=O)CCN(C)C` [Compound 11], the “Total photon count in vivo at 6 hours” value stood at 4.42E+06.

For `CCCCCCCCCN(CCCCCCCCC)C(=O)C(C)(C)CCCCCC(CCCCCC(C)(C)C(=O)N(CCCCCCCCC)CCCCCCCCC)OC(=O)CCN(C)C` [Compound 12], the “Total photon count in vivo at 6 hours” value was 1.10E+09.

Turning to `CCCCCCCCCCOC(=O)C(C)(C)CCCCCC(CCCCCC(C)(C)C(=O)OCCCCCCCCCC)OC(=O)CN(C)C` [Compound 17], the “Total photon count in vivo at 6 hours” value came to 6.77E+05.

With `CCCCCCCCCCOC(=O)C(C)(C)CCCCCC(CCCCCC(C)(C)C(=O)OCCCCCCCCCC)OC(=O)CCCN(C)C` [Compound 18], the “Total photon count in vivo at 6 hours” value was 1.14E+10.

As to `CCCCCCCCOC(=O)C(C)(C)CCCCCC(CCCCCC(C)(C)C(=O)OCCCCCCCC)OC(=O)CCCN(C)C` [Compound 19], the “Total photon count in vivo at 6 hours” value stood at 3.20E+09.

Turning to `CCCCCCCCCOC(=O)C(C)(C)CCCCCC(CCCCCC(C)(C)C(=O)OCCCCCCCCC)OC(=O)CCCN(C)C` [Compound 20], the “Total photon count in vivo at 6 hours” value is 2.40E+10.

`CCCCCCCC#CCOC(=O)C(C)(C)CCCCCC(CCCCCC(C)(C)C(=O)OCC#CCCCCCCC)OC(=O)CCCN(C)C` [Compound 23]: the “Total photon count in vivo at 6 hours” value is 1.43E+10.

As to `CCCCC#CCCCCOC(=O)C(C)(C)CCCCCC(CCCCCC(C)(C)C(=O)OCCCCC#CCCCC)OC(=O)CCCN(C)C` [Compound 25], the “Total photon count in vivo at 6 hours” value turned out to be 1.89E+08.

In the case of `CCCCCCC/C=C\COC(=O)C(C)(C)CCCCCC(CCCCCC(C)(C)C(=O)OC/C=C\CCCCCCC)OC(=O)CCCN(C)C` [Compound 26], the “Total photon count in vivo at 6 hours” value is more than 4.00E+10.

`CCCCCC/C=C\CCOC(=O)C(C)(C)CCCCCC(CCCCCC(C)(C)C(=O)OCC/C=C\CCCCCC)OC(=O)CCCN(C)C` [Compound 27]: the “Total photon count in vivo at 6 hours” value was 2.20E+10.

For `CCCCCCCCCOC(=O)C(C)(C)CCCCCC(CCCCCC(C)(C)C(=O)OCCCCCCCCC)OC(=O)CCCCCN(C)C` [Compound 32], the “Total photon count in vivo at 6 hours” value turned out to be 7.30E+09.

For the compound `CCCCCCCCCCSC(=O)C(C)(C)CCCCCC(CCCCCC(C)(C)C(=O)SCCCCCCCCCC)OC(=O)CCN(C)C` [Compound 33], the “Total photon count in vivo at 6 hours” value is recorded as 2.12E+08.

In the case of `CCCCCCCCCCSC(=O)C(C)(C)CCCCCC(CCCCCC(C)(C)C(=O)SCCCCCCCCCC)OC(=O)CCCN(C)C` [Compound 34], the “Total photon count in vivo at 6 hours” value amounted to 1.26E+10.

Regarding `CCCCCCCCCCSC(=O)C(C)(C)CCCCCC(CCCCCC(C)(C)C(=O)SCCCCCCCCCC)OC(=O)CCCCCN(C)C` [Compound 36], the “Total photon count in vivo at 6 hours” value is 4.84E+09.

With `CCCCCCCCCSC(=O)C(C)(C)CCCCCC(CCCCCC(C)(C)C(=O)SCCCCCCCCC)OC(=O)CCCN(C)C` [Compound 37], the “Total photon count in vivo at 6 hours” value stood at 7.88E+09.

As for `CCCCCCCCCCSC(=O)C(C)(C)CCCCCC(CCCCCC(C)(C)C(=O)OCCCCCCCCC)OC(=O)CCCN(C)C` (centres unmarked) [Compound 40], the “Total photon count in vivo at 6 hours” value is 4.22E+09.

Regarding `CCCCCCCCCOC(=O)C(C)(C)CCCCCC(CCCCCC(C)(C)C(=O)SCCCCCCCCC)OC(=O)CCCN(C)C` (centres unmarked) [Compound 41], the “Total photon count in vivo at 6 hours” value was 2.19E+10.

Turning to `CCCCCCC#CCOC(=O)C(C)(C)CCCCCC(CCCCCC(C)(C)C(=O)OCCCCCCCCC)OC(=O)CCCN(C)C` (centres unmarked) [Compound 42], the “Total photon count in vivo at 6 hours” value turned out to be 5.32E+09.

As for `CCCCCCCCCOC(=O)C(C)(C)CCCCCC(CCCCCC(C)(C)C(=O)OCC(CCCCC)CCCCCCC)OC(=O)CCCN(C)C` (centres unmarked) [Compound 46], the “Total photon count in vivo at 6 hours” value is on record as more than 4.00E+10.

Turning to `CCCCCCCCCCOC(=O)C(C)(C)CCCCCC(CCCCCC(C)(C)C(=O)OCCCCCCCCCC)OC(=O)CCN1CCOCC1` [Compound 90], the “Total photon count in vivo at 6 hours” value is 1.04E+07.

In the case of `CCCCCCCCCCOC(=O)C(C)(C)CCCCCC(CCCCCC(C)(C)C(=O)OCCCCCCCCCC)OC(=O)CN1CCOCC1` [Compound 91], the “Total photon count in vivo at 6 hours” value was 1.29E+06.

As to `CCCCCCCCCCOC(=O)C(C)(C)CCCCCC(CCCCCC(C)(C)C(=O)OCCCCCCCCCC)OC(=O)CCN1CCCC1` [Compound 92], the “Total photon count in vivo at 6 hours” value was determined as 2.13E+09.

In the case of `CCCCCCC/C=C\COC(=O)CC(C)(C)CCCCC(CCCCC(C)(C)CC(=O)OCC(CCCCC)CCCCCCC)OC(=O)CCCN(C)C` (centres unmarked) [Compound 98], the “Total photon count in vivo at 6 hours” value worked out at 2.12E+10.

`CCCCCCCCOC(=O)C(C)(C)CCCCCC(CCCCCC(C)(C)C(=O)OCCCCCCCC)OC(=O)C1CCN(C)CC1` [Compound 100]: the “Total photon count in vivo at 6 hours” value is 1.18E+10.

With `CCCCCCCCOC(=O)C(C)(C)CCCCCC(CCCCCC(C)(C)C(=O)OCCCCCCCC)OC(=O)C1CCN(C(C)C)CC1` [Compound 101], the “Total photon count in vivo at 6 hours” value is 5.19E+09.

Consider `CCCCCCCCCOC(=O)C(C)(C)CCCCCC(CCCCCC(C)(C)C(=O)OCCCCCCCCC)OC(=O)C1CCN(C)CC1` [Compound 102], for which the “Total photon count in vivo at 6 hours” value was found to be 2.03E+10.

With `CCCCCCCCCOC(=O)C(C)(C)CCCCCC(CCCCCC(C)(C)C(=O)OCCCCCCCCC)OC(=O)C1CCN(C(C)C)CC1` [Compound 103], the “Total photon count in vivo at 6 hours” value came out at 5.69E+09.

`CCCCCCCCCCSC(=O)C(C)(C)CCCCCC(CCCCCC(C)(C)C(=O)SCCCCCCCCCC)OC(=O)C1CCN(C)CC1` [Compound 104]: the “Total photon count in vivo at 6 hours” value is recorded as 2.61E+10.

Turning to `CCCCCCCCCCSC(=O)C(C)(C)CCCCCC(CCCCCC(C)(C)C(=O)SCCCCCCCCCC)OC(=O)C1CCN(C(C)C)CC1` [Compound 105], the “Total photon count in vivo at 6 hours” value was 3.33E+09.

On to `CCCCCCCCCSC(=O)C(C)(C)CCCCCC(CCCCCC(C)(C)C(=O)SCCCCCCCCC)OC(=O)C1CCN(C)CC1` [Compound 106], for which the “Total photon count in vivo at 6 hours” value was 1.85E+10.

`CCCCCCCCCSC(=O)C(C)(C)CCCCCC(CCCCCC(C)(C)C(=O)SCCCCCCCCC)OC(=O)C1CCN(C(C)C)CC1` [Compound 107]: the “Total photon count in vivo at 6 hours” value is listed as 1.36E+10.

As to `CCCCCCCCCSC(=O)C(C)(C)CCCCCC(CCCCCC(C)(C)C(=O)SCCCCCCCCC)OC(=O)CC1CCN(C)CC1` [Compound 108], the “Total photon count in vivo at 6 hours” value was 1.21E+10.

In the case of `CCCCCCCCCSC(=O)C(C)(C)CCCCCC(CCCCCC(C)(C)C(=O)SCCCCCCCCC)OC(=O)CC1CCN(CC)CC1` [Compound 109], the “Total photon count in vivo at 6 hours” value is 1.32E+10.

As for `CCCCCCCCCOC(=O)C(C)(C)CCCCCC(CCCCCC(C)(C)C(=O)OCC(CCCCC)CCCCCCC)OC(=O)CC1CCN(C)CC1` (centres unmarked) [Compound 111], the “Total photon count in vivo at 6 hours” value amounted to 1.79E+10.

With `CCCCCCCCCSC(=O)C(C)(C)CCCCCC(CCCCCC(C)(C)C(=O)OCC(CCCCC)CCCCCCC)OC(=O)CC1CCN(C)CC1` (centres unmarked) [Compound 112], the “Total photon count in vivo at 6 hours” value is recorded as 3.53E+10.

Consider `CCCCCCCC#CCOC(=O)C(C)(C)CCCCCC(CCCCCC(C)(C)C(=O)OCCCC(CCCCC)CCCCC)OC(=O)CCCN(C)C` (centres unmarked) [Compound 115], for which the “Total photon count in vivo at 6 hours” value was determined as 2.56E+10.

As for `CCCCCCCC#CCOC(=O)C(C)(C)CCCCCC(CCCCCC(C)(C)C(=O)OCC(CCCCC)CCCCCCC)OC(=O)CCCN(C)C` (centres unmarked) [Compound 116], the “Total photon count in vivo at 6 hours” value is reported as more than 4.00E+10.
